Values of other authors as cited in patent publication US12004545B2, “Infant nutrition delivering metabolic benefits” (SOCIÉTÉ DES PRODUITS NESTLÉ S.A., priority 2016, dated 2024).

Details: value used in the GL calculation

Row | SMILES | GI of ingredient (available CHO)
1 | OC[C@H]1O[C@@H](O[C@H]2[C@H](O)[C@@H](O)C(O)O[C@@H]2CO)[C@H](O)[C@@H](O)[C@H]1O (some centres unmarked) [lactose] | 46
2 | OC[C@H]1O[C@@](CO)(O[C@H]2O[C@H](CO)[C@@H](O)[C@H](O)[C@H]2O)[C@@H](O)[C@@H]1O [sucrose] | 68
